Assays:
Type in all cases: protein assay
Phosphodiesterase 4 [1] = target: T1, Phosphodiesterase 4 (Homo sapiens, UniProt P27815+Q08499+Q07343+Q08493); test: Relative inhibition of phosphodiesterase 4 activity and Rolipram binding to PDE4
Phosphodiesterase 4 [2] = target: T1, Phosphodiesterase 4; test: Inhibition of Rolipram binding to PDE4
Phosphodiesterase 4 [3] = target: T1, Phosphodiesterase 4; test: Inhibition of phosphodiesterase 4
Phosphodiesterase 4 [4] = target: T1, Phosphodiesterase 4; test: (§1) Inhibition of Rolipram binding to PDE4 at 1 uM
Phosphodiesterase 4 [5] = target: T1, Phosphodiesterase 4; test: Inhibition of Rolipram binding to PDE4 at 10 uM
Phosphodiesterase 4 [6] = target: T1, Phosphodiesterase 4; test: as §1; remark: listed apart in the source
Phosphodiesterase 4 [7] = target: T1, Phosphodiesterase 4; test: Inhibition of Rolipram binding to PDE4 at 100 uM

## CCCn1cc(C(=O)NCCc2ccncc2)c(=O)c2cc(C(F)(F)F)ccc21.Cl
Phosphodiesterase 4 [1]
  Ratio: 0.17
Phosphodiesterase 4 [2]
  IC50: 10000 nM
Phosphodiesterase 4 [3]
  IC50: 1700 nM

## CCn1cc(C(=O)NCCc2ccncc2)c(=O)c2cnc(N3CCCC3)nc21
Phosphodiesterase 4 [1]
  Ratio: < 1
Phosphodiesterase 4 [3]
  IC50: 1200 nM
Phosphodiesterase 4 [4]
  inhibition: 11%

## CCn1cc(C(=O)NC2CCc3cc(OC)c(OC)cc32)c(=O)c2cc(C(F)(F)F)ccc21 (configuration not stated)
Phosphodiesterase 4 [1]
  Ratio: < 0.9
Phosphodiesterase 4 [3]
  IC50: 900 nM
Phosphodiesterase 4 [4]
  inhibition: 22%

## CCn1cc(C(=O)NC2CCc3cc(NC(C)=O)ccc32)c(=O)c2cnc(N3CCCC3)nc21 (configuration not stated)
Phosphodiesterase 4 [1]
  Ratio: < 1
Phosphodiesterase 4 [3]
  IC50: 1800 nM
Phosphodiesterase 4 [4]
  inhibition: 17%

## CCn1cc(C(=O)NCCc2ccncc2)c(=O)c2cc3c(cc21)OCO3
Phosphodiesterase 4 [1]
  Ratio: 1
Phosphodiesterase 4 [5]
  inhibition: 31%
Phosphodiesterase 4 [3]
  IC50: 23000 nM

## CCn1cc(C(=O)N/N=C/c2ccccc2Cl)c(=O)c2cc(C(F)(F)F)ccc21
Phosphodiesterase 4 [6]
  IC50: 10000 nM
Phosphodiesterase 4 [3]
  IC50: 1100 nM

## CCn1cc(C(=O)N(C)CCc2ccccc2)c(=O)c2cc(C(F)(F)F)ccc21
Phosphodiesterase 4 [1]
  Ratio: < 0.49
Phosphodiesterase 4 [3]
  IC50: 49000 nM
Phosphodiesterase 4 [7]
  inhibition: 15%

## CCn1cc(C(=O)NCCc2ccccc2)c(=O)c2cc(C(F)(F)F)ccc21
Phosphodiesterase 4 [1]
  Ratio: < 0.6
Phosphodiesterase 4 [3]
  IC50: 600 nM
Phosphodiesterase 4 [4]
  inhibition: 8%

## CCn1cc(C(=O)NCCc2ccncc2)c(=O)c2cc(C(F)(F)F)ccc21
Phosphodiesterase 4 [1]
  Ratio: < 0.15
Phosphodiesterase 4 [5]
  inhibition: 24%
Phosphodiesterase 4 [3]
  IC50: 1500 nM

## CC1CCc2cc(F)cc3c(=O)c(C(=O)NCCc4ccncc4)cn1c23 (configuration not stated)
Phosphodiesterase 4 [1]
  Ratio: < 0.7
Phosphodiesterase 4 [5]
  inhibition: 8%
Phosphodiesterase 4 [3]
  IC50: 7000 nM

## CCn1cc(C(=O)NCCc2ccncc2)c(=S)c2cc(C(F)(F)F)ccc21
Phosphodiesterase 4 [1]
  Ratio: < 0.46
Phosphodiesterase 4 [3]
  IC50: 460 nM
Phosphodiesterase 4 [4]
  inhibition: 15%
